Source: the supplement of paper PMC11061612

Key:
Assay in all cases: Bliss excess, mean over the matrix (fraction); higher = more synergy
[1] = system: ALL-PO (B-Lymphoblastic Leukemia)
Outline: (§1)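 After 24 hours at 37°C and 5% CO2 in 1536-well plates, cells in DMEM/F12 or RPMI plus 10% FBS received two-drug dose matrices for 72 hours. Viability came from CellTiter-Glo 2.0 luminescence and was scaled as inhibition, anchored at 0 by vehicle wells and at 1 by blank wells. Combination Emax is taken as the second-highest inhibition in the matrix, and Bliss excess as the observed combination effect less EA + EB − EA·EB, with EA and EB the single-agent effects.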

BE2-M17 (Neuroblastoma) = system: BE2-M17 (Neuroblastoma)
Outline: as §1

BPH-1 (Non-Cancerous) = system: BPH-1 (Non-Cancerous)
Outline: as §1

[2] = system: FTC-133 (Thyroid Gland Carcinoma)
Outline: as §1

[3] = system: HH (T-Cell Non-Hodgkin's Lymphoma)
Outline: as §1

[4] = system: HeLa (Cervical Carcinoma)
Outline: as §1

[5] = system: Hs-746T (Gastric Carcinoma)
Outline: as §1

[6] = system: HuCCT1 (Biliary Tract Carcinoma)
Outline: as §1

[7] = system: HuH-7 (Hepatocellular Carcinoma)
Outline: as §1

[8] = system: KMRC-20 (Kidney Carcinoma)
Outline: as §1

[9] = system: L-428 (Hodgkin's Lymphoma)
Outline: as §1

[10] = system: LCLC-97TM1 (Non-Small Cell Lung Carcinoma)
Outline: as §1

[11] = system: LNZTA3WT4 (Low Grade Glioma)
Outline: as §1

LOXIMVI (Melanoma) = system: LOXIMVI (Melanoma)
Outline: as §1

NCI-H2722 (Mesothelioma) = system: NCI-H2722 (Mesothelioma)
Outline: as §1

[12] = system: NUGC-4 (Gastric Carcinoma)
Outline: as §1

[13] = system: OVCAR-5 (Ovarian Carcinoma)
Outline: as §1

[14] = system: SAS (Oral Cavity Carcinoma)
Outline: as §1

[15] = system: TGBC1TKB (Biliary Tract Carcinoma)
Outline: as §1

[16] = system: WSU-NHL (B-Cell Non-Hodgkin's Lymphoma)
Outline: as §1

SMILES | Bliss excess [1] | Bliss excess (BE2-M17 (Neuroblastoma)) | Bliss excess (BPH-1 (Non-Cancerous)) | Bliss excess [2] | Bliss excess [3] | Bliss excess [4] | Bliss excess [5] | Bliss excess [6] | Bliss excess [7] | Bliss excess [8] | Bliss excess [9] | Bliss excess [10] | Bliss excess [11] | Bliss excess (LOXIMVI (Melanoma)) | Bliss excess (NCI-H2722 (Mesothelioma)) | Bliss excess [12] | Bliss excess [13] | Bliss excess [14] | Bliss excess [15] | Bliss excess [16]
Cc1c2c(nn1C)CSCc1cc(n(C)n1)CSc1cc(c3ccccc3c1)OCCCc1c(C(=O)O)n(C)c3c-2c(Cl)ccc13 [AZD5991] + C1CN(CCC1(C(=O)N[C@@H](CCO)C2=CC=C(C=C2)Cl)N)C3=NC=NC4=C3C=CN4 [Capivasertib] (first compound max 1 µM, 7x7, partner max 3 µM) | 0.0327 | -0.0068 | 0.0123 | 0.0062 | 0.0176 | 0.0059 | 0.0327 | -0.0405 | -0.0116 | -0.0163 | -0.0007 | -0.0061 | 0.0495 | -0.0067 | -0.0147 | -0.0228 | -0.0337 | -0.0165 | -0.0159 | -0.0777
Cc1c2c(nn1C)CSCc1cc(n(C)n1)CSc1cc(c3ccccc3c1)OCCCc1c(C(=O)O)n(C)c3c-2c(Cl)ccc13 [AZD5991] + C=CCn1c(=O)c2cnc(Nc3ccc(N4CCN(C)CC4)cc3)nc2n1-c1cccc(C(C)(C)O)n1 [AZD1775] (first compound max 1 µM, partner max 1 µM) | 0.0023 | -0.03 | -0.0071 | 0.0172 | -0.0046 | -0.0224 | -0.0096 | 0.0676 | -0.0259 | -0.0011 | 0.0145 | -0.0141 | -0.0292 | -0.029 | -0.016 | -0.0128 | -0.0096 | -0.0144 | 0.0066 | -0.0459
Cc1c2c(nn1C)CSCc1cc(n(C)n1)CSc1cc(c3ccccc3c1)OCCCc1c(C(=O)O)n(C)c3c-2c(Cl)ccc13 [AZD5991] + CN(C)CCCOc1ccc(-c2ccc3ncc4c(c3c2)n(C2CCOCC2)c(=O)n4C)cn1 [AZD0156] (first compound max 1 µM, 7x7, partner max 1 µM) | -0.0005 | 0.0023 | 0.0896 | -0.0105 | -0.0248 | -0.0266 | 0.0008 | -0.04 | 0.0316 | -0.0036 | 0.0294 | -0.0018 | -0.0135 | 0.0016 | -0.0302 | -0.0305 | -0.024 | 0.0142 | -0.0332 | -0.0375
Cc1c2c(nn1C)CSCc1cc(n(C)n1)CSc1cc(c3ccccc3c1)OCCCc1c(C(=O)O)n(C)c3c-2c(Cl)ccc13 [AZD5991] + C[C@@H]1COCCN1C2=NC(=NC(=C2)C3(CC3)[S@](=N)(=O)C)C4=C5C=CNC5=NC=C4 [AZD6738] (first compound max 1 µM, 7x7, partner max 10 µM) | 0.0236 | 0.0574 | 0.0039 | 0.0969 | 0.0317 | 0.0217 | 0.0423 | 0.0206 | -0.0057 | -0.0153 | 0.023 | 0.0401 | -0.0028 | -0.0373 | 0.0224 | 0.02 | -0.0248 | -0.0367 | 0.0537 | -0.0352
Cc1c2c(nn1C)CSCc1cc(n(C)n1)CSc1cc(c3ccccc3c1)OCCCc1c(C(=O)O)n(C)c3c-2c(Cl)ccc13 [AZD5991] + C[C@@H](Nc1cc(F)cc(F)c1)c1cc(C(=O)N(C)C)cc2c(=O)cc(N3CCOCC3)oc12 [AZD8186] (first compound max 1 µM, 7x7, partner max 3 µM) | -0.0248 | -0.0355 | 0.0078 | -0.0065 | 0.105 | 0.0387 | 0.0106 | 0.021 | -0.007 | 0.0456 | -0.0085 | -0.003 | 0.0055 | -0.0227 | -0.0434 | -0.0056 | -0.0106 | 0.0062 | -0.0236 | -0.0366
Cc1c2c(nn1C)CSCc1cc(n(C)n1)CSc1cc(c3ccccc3c1)OCCCc1c(C(=O)O)n(C)c3c-2c(Cl)ccc13 [AZD5991] + Cc1cc2ncnn2cc1Nc1ncc2c(n1)n(C1CCOCC1)c(=O)n2C [AZD7648] (first compound max 1 µM, 7x7, partner max 10 µM) | -0.0304 | -0.0159 | -0.0632 | -0.0322 | -0.0536 | 0.0021 | -0.0784 | -0.032 | -0.0408 | -0.0036 | 0.0455 | -0.0015 | -0.0144 | 0.0193 | -0.0785 | -0.0498 | -0.0913 | -0.0078 | -0.0115 | -0.0594
Cc1c2c(nn1C)CSCc1cc(n(C)n1)CSc1cc(c3ccccc3c1)OCCCc1c(C(=O)O)n(C)c3c-2c(Cl)ccc13 [AZD5991] + Cn1cnc2c(F)c(Nc3ccc(Br)cc3Cl)c(C(=O)NOCCO)cc21 [Selumetinib] (first compound max 1 µM, 7x7, partner max 3 µM) | 0.0056 | 0.0436 | 0.0216 | 0.0108 | -0.0664 | -0.004 | -0.018 | 0.0339 | -0.0361 | 0.0054 | 0.0018 | 0.0506 | 0.0046 | 0.0256 | 0.0081 | 0.0356 | -0.0349 | 0.0248 | -0.0181 | -0.0489
